Where two headings read alike, the source gives them in different places.
Key:
IP-10 (CXCL10) = experiment: IP-10 level in BEAS-2B cells infected with rhinovirus RV-16; assay type: cell-based, human; conditions: BEAS-2B cells infected with RV-16; test ingredient at 5 μM andrographolide content; control 61.99
Excerpt: An in vitro cell line of BEAS-2B cells can be infected with rhinovirus RV-16. The cells are then exposed to various compounds and extracts and subsequently levels of respiratory biomarker proteins can be assayed. Extracts and compounds are identified as regulating the respiratory biomarker proteins by monitoring the levels of the respiratory biomarker proteins after exposure of the infected cells to the extracts and compounds and comparing to the levels of the respiratory biomarker proteins in infected cells that have not been exposed to extracts and compounds.
In the example, the test ingredients are extracts of the herb andrographis paniculata, or its principal component, andrographolide. The test ingredients are tested at a level of 5 μM andrographolide content. The respiratory biomarker protein is IP-10 (CXCL10), a chemotactic agent.

NF-kB [1] = experiment: IL1b-induced NFkB nuclear translocation (Cellomics HitKit), BEAS-2B cells; assay type: cell-based; conditions: Homo sapiens, 0.5 h, IL1b 0.5 ng/ml for 30 min, then inhibitor 30 min
Excerpt: (§1) Because NF-κB must be in the nucleus to induce gene expression, its translocation is a definitive measure of its activation and marks an earlier event than reporter gene expression. This assay is an example of a 96-well medium throughput technology that can detect NF-κB translocation in several cell types.
(§2) Assays may be performed in standard, high-density microplates, where measurements of the rate and extent of NF-κB translocation are made in intact cells which provides more biological representative information. Cellomics' NF-κB activation kit (Cat. No. K01-001-1) may combine fluorescent reagents and protocols for optimized sample preparation and assays, and requires no cell lysis, purification or filtration steps. After fixation, the plates are stable for extended periods, when stored light-protected at 4° C.
(§3) One may create a fully automated screen to identify compounds that inhibit or activate NF-[…]B on a cell-by-cell basis. Prepared cells can be analyzed using standard fluorescence microscopy or using Cellomics' fully automated HCS Reader with the Cytoplasm to Nucleus Translocation Bioapplication, affording automated plate handling, focusing, image acquisition, analysis, quantification, and data storage.

NF-kB [2] = experiment: IL1b-induced NFkB nuclear translocation (Cellomics HitKit), A549 cells; assay type: cell-based; conditions: Homo sapiens, 0.5 h, IL1b 0.05 ng/ml for 30 min, then inhibitor 30 min
Excerpt: as §1, §2, §3

ovine COX-1 = molecular target: T1, ovine COX-1 (Ovis aries, UniProt P05979); experiment: COX Inhibitor Screening Assay (Cayman), COX-1; assay type: biochemical
T1 construct: purchased Cayman Chemical Company 560101
T1 sequence (P05979 25-600): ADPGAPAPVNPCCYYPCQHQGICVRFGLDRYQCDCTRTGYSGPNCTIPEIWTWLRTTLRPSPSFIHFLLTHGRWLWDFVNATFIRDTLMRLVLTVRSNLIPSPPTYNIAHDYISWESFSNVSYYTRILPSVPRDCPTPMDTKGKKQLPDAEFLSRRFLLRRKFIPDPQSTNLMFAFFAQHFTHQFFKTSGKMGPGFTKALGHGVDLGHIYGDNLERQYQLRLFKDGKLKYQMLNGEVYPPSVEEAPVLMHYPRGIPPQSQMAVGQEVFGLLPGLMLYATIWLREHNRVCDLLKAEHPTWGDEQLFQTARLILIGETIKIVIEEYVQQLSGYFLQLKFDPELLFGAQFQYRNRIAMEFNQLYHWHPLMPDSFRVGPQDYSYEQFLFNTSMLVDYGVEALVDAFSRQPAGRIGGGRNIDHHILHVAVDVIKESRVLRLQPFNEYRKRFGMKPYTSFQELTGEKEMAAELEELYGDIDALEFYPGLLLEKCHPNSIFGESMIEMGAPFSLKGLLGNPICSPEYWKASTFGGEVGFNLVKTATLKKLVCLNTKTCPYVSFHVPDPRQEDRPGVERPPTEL
Excerpt: An example of a COX Inhibitor Screening Assay (Cat. No. 560101 manufactured by Cayman Chemical Company, Ann Harbor, Mich.) directly measures PGF2 produced by SnCl2 reduction of COX-derived PGH2. The prostanoid product may be quantified via enzyme immunoassay (EIA) using a broadly specific antibody that binds to all the major prostaglandin compounds. Thus, the COX assay is more accurate and reliable than an assay based on peroxidase inhibition. The Cayman COX Inhibitor Screening Assay includes both ovine COX-1 and human recombinant COX-2 enzymes in order to screen isozyme-specific inhibitors. This assay may be an excellent tool which can be used for general inhibitor screening, or to eliminate false positive leads generated by less specific methods.
(§4) Test compounds may be assayed for inhibition of prostaglandin production via contacting them individually with cells that have been infected with rhinovirus. An assay for prostaglandin is available from Cisbio International, Bedford Mass. One cell line suitable for infection by rhinovirus is A549 (ATCC designation CCL-185), a human epithelial lung carcinoma available from ATCC, Manassas, Va. […] A COX assay is available from Cayman Chemical, Ann Arbor, Mich.

PGE2 formation = PGE2 formation in cells infected with rhinovirus (Cisbio HTRF assay); assay type: cell-based, human
Excerpt: There are several standard methods available for quantifying PGE2. The HTRF® PGE2 assay (developed by Cisbio International, Cat. No. 62P2APEB) is an example of a highly sensitive method for quantifying PGE2. Its principle is based on HTRF technology (Homogeneous Time-Resolved Fluorescence). It can be performed either in cell supernatants or directly in the presence of whole cells. This method is a competitive immunoassay in which native PGE2 produced by cells, and d2-labelled PGE2 compete for binding to MAb anti-PGE2 labeled with cryptate. The HTRF signal is inversely proportional to the concentration of PGE2 in the calibrator or in the sample. The incubation time and temperature following addition of the HTRF detection reagents has little effect on the assay results providing another level of assay flexibility.
Briefly, consecutive dilutions (within the 0-5000 pg/ml range) of samples may be prepared with the diluent. The reagents are dispensed (as outlined in the protocol) into a 384-well low volume plate (20 ul). Negative and positive controls are included. The plate is covered with a plate sealer and incubated for 5 hours at room temperature or overnight at 4° C. Free PGE2 from the sample competes with […] for binding to the Cryptate conjugated anti-PGE2 antibody. Then the plate is read on a compatible HTRF reader.
as §4

human recombinant COX-2 = molecular target: T2, human recombinant COX-2 (Homo sapiens, UniProt P35354); experiment: biochemical; conditions: purified enzyme
T2 sequence (P35354 18-604): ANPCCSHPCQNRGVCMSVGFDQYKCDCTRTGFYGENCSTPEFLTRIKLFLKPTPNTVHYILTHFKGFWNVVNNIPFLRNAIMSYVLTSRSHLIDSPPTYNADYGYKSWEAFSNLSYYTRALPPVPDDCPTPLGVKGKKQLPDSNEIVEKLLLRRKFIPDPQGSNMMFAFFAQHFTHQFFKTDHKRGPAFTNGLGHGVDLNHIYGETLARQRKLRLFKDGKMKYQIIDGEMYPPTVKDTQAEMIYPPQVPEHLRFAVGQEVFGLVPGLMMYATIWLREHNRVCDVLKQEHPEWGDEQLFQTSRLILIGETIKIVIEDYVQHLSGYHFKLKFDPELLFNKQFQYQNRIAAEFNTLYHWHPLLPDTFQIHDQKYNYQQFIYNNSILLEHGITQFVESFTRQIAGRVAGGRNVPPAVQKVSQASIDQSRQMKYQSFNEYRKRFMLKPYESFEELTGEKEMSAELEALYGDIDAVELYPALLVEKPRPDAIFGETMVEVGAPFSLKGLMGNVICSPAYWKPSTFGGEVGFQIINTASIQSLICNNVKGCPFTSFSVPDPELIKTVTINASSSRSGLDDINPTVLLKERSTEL
Excerpt: An example of a COX Inhibitor Screening Assay (Cat. No. 560101 manufactured by Cayman Chemical Company, Ann Harbor, Mich.) directly measures PGF2 produced by SnCl2 reduction of COX-derived PGH2. The prostanoid product may be quantified via enzyme immunoassay (EIA) using a broadly specific antibody that binds to all the major prostaglandin compounds. […] The Cayman COX Inhibitor Screening Assay includes both ovine COX-1 and human recombinant COX-2 enzymes in order to screen isozyme-specific inhibitors.
An assay for prostaglandin is available from Cisbio International, Bedford Mass. One cell line suitable for infection by rhinovirus is A549 (ATCC designation CCL-185), a human epithelial lung carcinoma available from ATCC, Manassas, Va. […] A COX assay is available from Cayman Chemical, Ann Arbor, Mich.

With `C=C1CC[C@@H]2[C@](C)(CO)[C@H](O)CC[C@@]2(C)[C@@H]1C/C=C1/C(=O)OC[C@H]1O` [Andrographolide, andrographolide] the “IP-10 (CXCL10)” value (IP-10 (CXCL10)) was 18.07 pg/mL.

In the case of `COc1cc(/C=C/C(=O)CC(=O)/C=C/c2ccc(O)c(OC)c2)ccc1O` [Curcumin, curcumin], the IC50 (NF-kB [1]) is reported as 5.9 µM and the IC50 (NF-kB [2]) is reported as 37.5 µM.

`CCCc1ccc(O)c(OC)c1` [DIHYDROEUGENOL, dihydroeugenol] showed an IC50 (ovine COX-1; purified enzyme, read-out: IC50 COX-1 activity) of 82 µM, an IC50 (PGE2 formation; cells infected with rhinovirus (A549 named as suitable line), read-out: IC50 PGE2 formation) of 0.38 µM and an IC50 (human recombinant COX-2) of 75 µM.

For `CCOc1ccc2c(c1)C(C)=CC(C)(C)N2` [ETHOXYQUIN, ethoxyquin], the IC50 (ovine COX-1) was 459 µM, the IC50 (PGE2 formation; Homo sapiens, cells infected with rhinovirus (A549 named as suitable line), read-out: IC50 PGE2 formation) was 0.03 µM and the IC50 (human recombinant COX-2) was 54 µM.

`C=CCc1ccc(O)c(OC)c1` [EUGENOL, eugenol] showed an IC50 (ovine COX-1) of 42 µM and an IC50 (PGE2 formation; Homo sapiens, A549, read-out: IC50 PGE2 formation) of 0.42 µM.
